Assay results from US20260256789A1, “METHODS FOR TREATMENT OF CANCER” (Frontier Medicines Corporation, priority 2022, published 2026).

Each compound was assayed against T1, KRAS G12C (GMPPNP-loaded) and cRAF Ras-binding domain (Homo sapiens, UniProt P01116, C118S/C51S/C80L/G12C) (assay: Inhibition of KRAS G12C and cRAF binding (AlphaScreen)). Settings: KRAS G12C preloaded with GTP analogue GMPPNP, 2 hours preincubation.
T1 construct: truncated version comprising amino acids 1-169
From the text: The ability of compounds of Formula (A), Formula (B) and Formula (C), and pharmaceutically acceptable salts and/or isotopologues thereof, to inhibit activity of the GTP-bound form of KRAS G12C can be tested using methods such as the in vitro assay described in Example 179 below. Example 179 describes determining, for various compounds, the half-maximal inhibition (IC50) of KRAS G12C loaded with GTP analogue GMPPNP from binding to cRaf, as the Ras-binding domain (RBD). Example 180 describes determining, for various compounds, the half-maximal inhibition (IC50) of KRAS G12C loaded with GTP analogue GMPPNP from binding to PI3Kα, as the Ras-binding domain (RBD). Example 181 describes testing compounds for the ability to inhibit cell viability in MCF10A G12C/A59G mutant, which abrogates GTPase activity, thus preventing hydrolysis of GTP to GDP.
The AlphaScreen technology was used to determine IC50s for compound inhibition of KRAS G12C (present as the Cys-light (C51S, C80L and C118S), truncated version comprising amino acids 1-169) and cRAF interaction. Compounds were diluted in 100% DMSO and each compound concentration was spotted at 200 nl/well onto low volume, white 384 well plates. The KRAS G12C contained a biotin-AviTag and the cRaf, as Ras-binding domain (amino acids 50-131, RBD), was GST-tagged. KRAS G12C was preloaded with the GTP analogue Guanosine 5′-[β,γ-imido]triphosphate (GMPPNP). The KRAS G12C was diluted in 25 mM Hepes, pH 7.4, 150 mM NaCl, 5 mM MgCl2, 0.01% TritonX-100 and 10 μM GMPPNP and added at 10 ul/well to compound-spotted plates resulting in a DMSO concentration of 2%. Plates were incubated for 2 hours. A mixture of RBD and the AlphaScreen streptavidin donor and glutathione acceptor beads diluted in 25 mM Hepes, pH 7.4, 150 mM NaCl, 5 mM MgCl2, 0.01% TritonX-100 and 2% DMSO was then added at 10 ul/well and incubated for 60-90 minutes before the samples were read for emission at 570 nm after excitation of the donor beads at 680 nm. All incubations were performed at room temperature. The final top compound concentration was 50 μM with 1:3 titrations for 10-point dose response curves. Final assay conditions were 0.5 nM KRAS G12C, 0.75 nM RBD and 5 μg/ml each of AlphaScreen donor and acceptor beads. IC50s were determined using nonlinear regression fit of [inhibitor] vs. response (4 parameters). […]

T1 sequence (P01116 1-169 isoform P01116-2 G12C/C51S/C80L/C118S): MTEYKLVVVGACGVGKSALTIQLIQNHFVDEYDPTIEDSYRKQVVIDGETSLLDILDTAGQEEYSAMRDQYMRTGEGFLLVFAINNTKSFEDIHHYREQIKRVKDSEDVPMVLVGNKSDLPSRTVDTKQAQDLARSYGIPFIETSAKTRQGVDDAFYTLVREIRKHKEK

Compound | IC50 [nM]
C=CC(=O)N1CC[C@@H](N(C)c2nc(OC[C@@]34CCCN3C[C@H](F)C4)nc3c(F)c(-c4cccc(C(F)(F)F)c4C4CC4)ncc23)C1 [Example 198] | ≥ 500
C=CC(=O)N1CC[C@@H](N(C)c2nc(OC[C@@]34CCCN3C[C@H](F)C4)nc3c(F)c(-c4nccc5cccc(Cl)c45)ncc23)C1 [Example 209] | ≥ 500
C=CC(=O)N1CC[C@@H](N(C)c2nc(OC[C@@]34CCCN3C[C@H](F)C4)nc3c(F)c(-c4cccc(Cl)c4C4CC4)ncc23)[C@H]1C (single isomer, unassigned) [Example 77] | 100 to 500
C=CC(=O)N1CC[C@@H](N(C)c2nc(OCC34CCCN3CCC4)nc3c2CC(C)C(c2nc(N)cc(C)c2C(F)(F)F)C3)C1 (stereo partly drawn) [Example 32, 1-((3R)-3-((7-(6-amino-4-methyl-3-(trifluoromethyl)pyridin-2-yl)-2-((hexahydro-1H-pyrrolizin-7a-yl)methoxy)-6-methyl-5,6,7,8-tetrahydroquinazolin-4-yl)(methyl)amino)pyrrolidin-1-yl)prop-2-en-1-one] | 10 to 100
Cc1noc(/C=C/C(=O)N2CC[C@@H](N(C)c3nc(OC[C@@]45CCCN4C[C@H](F)C5)nc4c(F)c(-c5nc(N)ccc5C(F)(F)F)ncc34)C2)n1 [Example 48, (E)-1-((R)-3-((7-(6-amino-3-(trifluoromethyl)pyridin-2-yl)-8-fluoro-2-(((2R,7aS)-2-fluorotetrahydro-1H-pyrrolizin-7a(5H)-yl)methoxy)pyrido[4,3-d]pyrimidin-4-yl)(methyl)amino)pyrrolidin-1-yl)-3-(3-methyl-1,2,4-oxadiazol-5-yl)prop-2-en-1-one] | 10 to 100
Cc1nccc(/C=C/C(=O)N2CC[C@@H](N(C)c3nc(OC[C@@]45CCCN4C[C@H](F)C5)nc4c(F)c(-c5cc(O)cc(Cl)c5C5CC5)ncc34)C2)n1 [Example 254] | < 10
CN1CC[C@@H]1/C=C/C(=O)N1CC[C@@H](N(C)c2nc(OC[C@@]34CCCN3C[C@H](F)C4)nc3c(F)c(-c4cc(O)cc(F)c4C4CC4)ncc23)C1 [Example 180] | < 10
C#Cc1cccc2[nH]nc(-c3ncc4c(N(C)[C@@H]5CCN(C(=O)C=C)C5)nc(OC[C@@]56CCCN5C[C@H](F)C6)nc4c3F)c12 [Example 216] | ≥ 500
CN(c1nc(OC[C@@]23CCCN2C[C@H](F)C3)nc2c(F)c(-c3cccc(Cl)c3C3CC3)ncc12)[C@@H]1CCN(C(=O)/C=C/CN2[C@@H]3CC[C@H]2COC3)C1 [Example 241] | 10 to 100
CN1CC[C@@H]1/C=C/C(=O)N1CC[C@@H](N(C)c2nc(OC[C@@]34CCCN3C[C@H](F)C4)nc3c(F)c(-c4cc(O)cc(Cl)c4C4CC4)ncc23)C1 [Example 213] | < 10
C=CC(=O)N1CC[C@@H](N(C)c2nc(OC[C@@]34CCCN3C[C@H](F)C4)nc3c(F)c(-c4cccc(OC(F)F)c4C4CC4)ncc23)C1 [Example 187] | ≥ 500

The next lines start with the values.

IC50 [nM] | Compound
< 10 | Cc1noc(/C=C/C(=O)N2CC[C@@H](N(C)c3nc(OC[C@@]45CCCN4C[C@H](F)C5)nc4c3CC(C)C(c3nc(N)cc(C)c3C(F)(F)F)C4)C2)n1 (stereo partly drawn) [Example 65, (E)-1-((3R)-3-((7-(6-amino-4-methyl-3-(trifluoromethyl)pyridin-2-yl)-2-(((2R,7aS)-2-fluorohexahydro-1H-pyrrolizin-7a-yl)methoxy)-6-methyl-5,6,7,8-tetrahydroquinazolin-4-yl)(methyl)amino)pyrrolidin-1-yl)-3-(3-methyl-1,2,4-oxadiazol-5-yl)prop-2-en-1-one]
< 10 | Cc1cc(/C=C/C(=O)N2CC[C@@H](N(C)c3nc(OC[C@@]45CCCN4C[C@H](F)C5)nc4c(F)c(-c5cc(O)cc(Cl)c5C5CC5)ncc34)C2)nc(C)n1 [Example 201]
≥ 500 | Cc1cc(N)nc(N2CCc3c(nc(OC[C@@]45CCCN4C[C@H](F)C5)nc3N(C)[C@@H]3CCN(C#N)C3)C2)c1C(F)(F)F [Example 203]
≥ 500 | C=CC(=O)N1CC[C@@H](N(C)c2nc(OC[C@@]34CCCN3C[C@H](F)C4)nc3c(F)c(-c4cccc(F)c4C4CC4)ncc23)C1 [Example 220]
10 to 100 | CC(C)c1noc(/C=C/C(=O)N2CC[C@@H](N(C)c3nc(OC[C@@]45CCCN4C[C@H](F)C5)nc4c(F)c(-c5nc(N)ccc5C(F)(F)F)ncc34)C2)n1 [Example 47, (E)-1-((R)-3-((7-(6-amino-3-(trifluoromethyl)pyridin-2-yl)-8-fluoro-2-(((2R,7aS)-2-fluorotetrahydro-1H-pyrrolizin-7a(5H)-yl)methoxy)pyrido[4,3-d]pyrimidin-4-yl)(methyl)amino)pyrrolidin-1-yl)-3-(3-isopropyl-1,2,4-oxadiazol-5-yl)prop-2-en-1-one]
100 to 500 | C=CC(=O)N1CC[C@@H](N(C)c2nc(OC[C@@]34CCCN3C[C@H](F)C4)nc3c(F)c(-c4cccc(Cl)c4C(F)(F)F)ncc23)C1 [Example 255]
≥ 500 | C=CC(=O)N1CC(CN(C)c2nc(OC[C@@]34CCCN3C[C@H](F)C4)nc3c(F)c(-c4nc(N)cc(C)c4C4CC4)ncc23)C1 [Example 133, 1-(3-(((7-(6-amino-3-cyclopropyl-4-methylpyridin-2-yl)-8-fluoro-2-(((2R,7aS)-2-fluorotetrahydro-1H-pyrrolizin-7a(5H)-yl)methoxy)pyrido[4,3-d]pyrimidin-4-yl)(methyl)amino)methyl)azetidin-1-yl)prop-2-en-1-one]
< 10 | CN1CC[C@@H]1/C=C/C(=O)N1CC[C@@H](N(C)c2nc(OC[C@@]34CCCN3C[C@H](F)C4)nc3c(F)c(-c4cccc(Cl)c4C4CC4)ncc23)C1 [Example 227]
≥ 500 | C=CC(=O)N1CC[C@@H](N(C)c2nc(OC[C@@]34CCCN3C[C@H](F)C4)nc3c(F)c(-c4nc(N)ccc4OC(F)F)ncc23)C1 [Example 261]
10 to 100 | C=CC(=O)N1CC[C@@H](N(C)c2nc(OC[C@@]34CCCN3C[C@H](F)C4)nc3c(F)c(-c4cccc5sc(N)nc45)ncc23)C1 [Example 244]
100 to 500 | Cc1cc(/C=C/C(=O)N2CC(CN(C)c3nc(OC[C@@]45CCCN4C[C@H](F)C5)nc4c(F)c(-c5cccc(Cl)c5C5CC5)ncc34)C2)nc(C)n1 [Example 200]
10 to 100 | Cc1cc(N)nc([C@@H]2Cc3nc(OC[C@@]45CCCN4C[C@H](F)C5)nc(N(C)CC4CN(C(=O)/C=C/c5nc(C(C)(C)O)no5)C4)c3C[C@H]2C)c1C(F)(F)F (single isomer, unassigned) [Example 162]
< 10 | C=CC(=O)N1C[C@H](F)[C@@H](N(C)c2nc(OC[C@@]34CCCN3C[C@H](F)C4)nc3c(F)c(-c4cc(O)cc(Cl)c4C4CC4)ncc23)C1 [Example 243]
< 10 | CN(C)C/C=C/C(=O)N1CC[C@@H](N(C)c2nc(OC[C@@]34CCCN3C[C@H](F)C4)nc3c(F)c(-c4cc(O)cc(Cl)c4C4CC4)ncc23)C1 [Example 197]
10 to 100 | C=CC(=O)N1CC[C@@H](N(C)c2nc(OC[C@@]34CCCN3C[C@H](F)C4)nc3c(F)c(-c4nc(N)cc5cccc(F)c45)ncc23)C1 [Example 76, 1-((R)-3-((7-(3-amino-8-fluoroisoquinolin-1-yl)-8-fluoro-2-(((2R,7aS)-2-fluorohexahydro-1H-pyrrolizin-7a-yl)methoxy)pyrido[4,3-d]pyrimidin-4-yl)(methyl)amino)pyrrolidin-1-yl)prop-2-en-1-one]
